Assay results from the NIST ThermoML archive (doi:10.1016/j.jct.2011.10.001).
Numbers after ± are expanded uncertainties.

Test: molar heat capacity at constant pressure
Settings: 101.33 kPa, Vacuum adiabatic calorimetry

CCCC(=O)OC [methyl butanoate]
molar heat capacity at constant pressure [J/K/mol]
Settings | Crystal | Liquid
130 K | 99.17 ± 0.3 | –
131.79 K | 100.55 ± 0.3 | –
133.79 K | 101.43 ± 0.3 | –
135.8 K | 102.27 ± 0.3 | –
137.8 K | 103.03 ± 0.3 | –
139.79 K | 103.9 ± 0.3 | –
140 K | 103.65 ± 0.3 | –
141.79 K | 104.89 ± 0.31 | –
143.79 K | 105.51 ± 0.31 | –
145.78 K | 106.36 ± 0.31 | –
147.78 K | 107.25 ± 0.31 | –
149.77 K | 107.92 ± 0.31 | –
150 K | 108.14 ± 0.31 | –
151.89 K | 109.06 ± 0.31 | –
153.86 K | 109.91 ± 0.31 | –
155.85 K | 110.69 ± 0.31 | –
157.83 K | 111.73 ± 0.31 | –
159.81 K | 112.47 ± 0.31 | –
160 K | 112.62 ± 0.31 | –
161.79 K | 113.29 ± 0.31 | –
163.77 K | 114.29 ± 0.31 | –
165.74 K | 115.26 ± 0.32 | –
167.72 K | 116.18 ± 0.32 | –
169.56 K | 116.65 ± 0.32 | –
170 K | 117.11 ± 0.32 | –
171.52 K | 117.81 ± 0.32 | –
173.49 K | 119.09 ± 0.32 | –
175.45 K | 120.75 ± 0.32 | –
177.41 K | 122.58 ± 0.32 | –
179.36 K | 125.17 ± 0.33 | –
180 K | 121.59 ± 0.32 | –
181.29 K | 129.69 ± 0.34 | –
183.2 K | 139.88 ± 0.37 | –
185.04 K | 158.37 ± 0.56 | –
186.78 K | 216.75 ± 1.8 | –
188.21 K | 448.34 ± 11 | –
189.16 K | 1561.8 ± 100 | –
189.7 K | 8659.7 ± 37 | –
190 K | 126.08 ± 0.33 | –
190.09 K | 126.12 ± 0.33 | 184.56 ± 0.39
191.08 K | 185.22 ± 120 | –
192.79 K | – | 184.74 ± 0.38
194.49 K | – | 184.98 ± 0.39
196.18 K | – | 185.21 ± 0.39
197.88 K | – | 185.04 ± 0.39
199.57 K | – | 185.15 ± 0.39
200 K | – | 185.19 ± 0.39
201.25 K | – | 185.01 ± 0.39
202.85 K | – | 185.47 ± 0.39
202.93 K | – | 185.15 ± 0.39
204.61 K | – | 185.47 ± 0.39
204.73 K | – | 185.64 ± 0.39
206.27 K | – | 185.39 ± 0.39
206.69 K | – | 185.68 ± 0.39
207.94 K | – | 185.44 ± 0.39
208.64 K | – | 186 ± 0.39
210 K | – | 185.83 ± 0.39
210.58 K | – | 186.03 ± 0.39
212.53 K | – | 186 ± 0.39
214.48 K | – | 186.17 ± 0.39
216.42 K | – | 186.44 ± 0.39
218.37 K | – | 186.11 ± 0.39
220 K | – | 186.51 ± 0.39
220.31 K | – | 186.33 ± 0.39
222.24 K | – | 186.86 ± 0.39
224.17 K | – | 186.8 ± 0.39
226.1 K | – | 186.88 ± 0.39
228.02 K | – | 187.23 ± 0.39
229.93 K | – | 187.61 ± 0.39
230 K | – | 187.52 ± 0.39
231.85 K | – | 187.86 ± 0.39
233.68 K | – | 187.83 ± 0.39
235.58 K | – | 188.04 ± 0.39
237.48 K | – | 188.4 ± 0.39
239.37 K | – | 188.78 ± 0.39
240 K | – | 188.78 ± 0.39
241.26 K | – | 188.74 ± 0.39
243.14 K | – | 189.23 ± 0.39
245.01 K | – | 189.8 ± 0.39
246.89 K | – | 190.04 ± 0.39
248.76 K | – | 190.11 ± 0.39
250 K | – | 190.21 ± 0.39
250.62 K | – | 190.43 ± 0.39
252.49 K | – | 190.56 ± 0.39
254.35 K | – | 190.93 ± 0.39
256.2 K | – | 190.97 ± 0.39
